Patent EP3204002B1, “PHARMACEUTICAL COMBINATION FOR THE TREATMENT OF TUMORS” (International Society for Drug Development S.r.l., priority 2014, dated 2016)
Structures can show the parent of a compound that is named as a salt.

What was measured:
Assay type in all cases: cell-based, human
[1] = test system: ANGM-CSS; experiment: cell viability / cytotoxicity by WST-1 colorimetric assay in ANGM-CSS; settings: alone
Method: (§1) The cell line ANGM-CSS and U118-MG were used, human glioblastoma multiforme (GBM) lines. The ANGM-CSS cell line (ECACC cat n°08040401) was supplied by Dr. Angelo Notarangelo, Laboratorio di Citogenetica, IRCCS Casa Sollievo della Sofferenza, San Giovanni Rotondo (FG), Italy. The U118-MG line was purchased from ATCC, Manassas, VA, USA. The culture medium consisted of DMEM:HAMS F12 (1:1) (Sigma-Aldrich) with the addition of 2mM of L-Glutamine (Sigma Aldrich), 10% Fetal Bovine Serum (FBS, Sigma-Aldrich), 100 units/ml penicillin and 100µg/ml streptomycin (P/S) at 37°C in an atmosphere with 5% CO2.
(§2) The cytotoxicity was evaluated via a colorimetric assay, using WST-1 (4-[3-(4-iodophenyl)-2-(4-nitrophenyl)-2H-5-tetrazolium]-1,3-benzene disulfonate) (Roche, Mannheim, Germany). The inhibition of the cell proliferation is expressed as a percentage of the absorbance at 450nm relative to the non-treated cells in culture. The absorbance was measured by an Enspire microplate reader (PerkinElmer, Wellesley, MA, USA).
(§3) The compound 1 was tested on the two cell lines of human glioblastoma multiforme ANGM-CSS and U118MG, which are resistant to temozolomide.

[2] = test system: U118-MG; experiment: cell viability / cytotoxicity by WST-1 colorimetric assay in U118-MG; settings: alone, 10µM and 100µM
Method: as §1, §2, §3

[3] = test system: U87MG cells; experiment: cell viability by MTS assay in U87MG cells; settings: 72 hours
Method: The human cells of glioblastoma multiforme U87MG were obtained from the national cancer research institute in Genoa (Italy) and were monitored to determine the DNA profiling. The U87MG cells were cultivated in RPMI medium with the addition of 10% FBS, 2 mM of L-glutamine, 100 U/ml of penicillin, […] of streptomycin and 1% of non-essential amino acids at 37°C in 5% CO2. The cells were used in the successive experiments up to the fourth detaching passage.
The U87MG cells were grown at 37°C in a humid atmosphere in the presence of 5% CO2. and were placed in a plate at a density of 3,000 cells/well. After 24 hours, the culture medium was replaced with fresh culture medium containing different concentrations of the compound 9 solubilized in DMSO. After 72 hours, the cell viability was assayed by means of MTS assay according to the manufacturer's instructions. […] The formazan formed is determined via reading of the absorbance at 490 nm measured with an automated plate reader (Victor Wallac 2, Perkin Elmer). […] The results were calculated by subtracting the mean background value from the values obtained from each evaluation and were expressed as a control percentage (non-treated cells). […] At the end of the treatments, the cell viability was determined by means of MTS assay.

Row | Compound | cell viability ([1]; 10µM) | cell viability ([1]; 100 µM) | cell viability [2] | cell viability ([3]; compound alone at 100 nM, 500 nM, 1 µM) | minimal effective concentration ([3]; Homo sapiens, U-87 MG, compound alone, read-out: concentration from which the effect on cell viability is significant)
1 | COc1cc2c(cc1OC)CN(CC(=O)Nc1ccc3c(c1)/C(=C/c1cccs1)C(=O)N3)CC2 [compound 1, N-[(3Z)-(2-oxo-3-(thiophene-2-ylmethylene)-2,3-dihydro-1H-indol-5-yl]-2-(6,7-dimethoxy-3,4-dihydroisoquinol-2-(1H)-yl)-acetamide hydrochloride] | no significant effect on cell viability | significant reduction in cell viability | significant reduction of cell viability | – | –
2 | Cc1ccc(S(=O)(=O)Nc2ccc3c(c2)/C(=C/c2cnc[nH]2)C(=O)N3)cc1 [compound 9, N-[(3Z)-3-(1H-imidazol-5-ylmethylidene)-2-oxo-2,3-dihydro-1H-indol-5-yl]-4-methylbenzenesulfonamide] | – | – | – | inhibits cell viability, in a concentration-dependent way | ≥ 0.5 µM
